How the values were obtained:
[1] = system: Caenorhabditis briggsae AF16; assay: mean adult lifespan of treated plate (days); higher = longer lifespan; settings: exposure: chronic from day 1 of adulthood
Method: (§1)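 Dose-response lifespan assays in three C. briggsae strains (AF16, HK104, JU1348), run per plate (35-40 animals) on NGM with live OP50-1 and 51 uM FUdR at 20 C. Compound was added to the plate surface and worms were exposed from the first day of adulthood.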

[2] = system: Caenorhabditis briggsae HK104; assay: as above; settings: exposure: chronic from day 1 of adulthood
Method: as §1

[3] = system: Caenorhabditis briggsae JU1348; assay: as above; settings: exposure: chronic from day 1 of adulthood
Method: as §1

[4] = system: Caenorhabditis briggsae AF16; assay: mean adult lifespan of treated cohort (days); higher = longer lifespan; settings: exposure: chronic from day 1 of adulthood, single dose per compound (concentration not stated in sheet)
Method: (§2)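 Caenorhabditis lifespan assay (CITP). Synchronised hermaphrodites were moved on the first day of adulthood onto 35 mm NGM plates with live E. coli OP50-1 and 51 uM FUdR, with the compound spread on the plate. Worms were kept at 20 C and scored for survival.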

[5] = system: Caenorhabditis briggsae HK104; assay: as above; settings: exposure: chronic from day 1 of adulthood, single dose per compound (concentration not stated in sheet)
Method: as §2

[6] = system: Caenorhabditis briggsae JU1348; assay: as above; settings: exposure: chronic from day 1 of adulthood, single dose per compound (concentration not stated in sheet)
Method: as §2

[7] = system: Caenorhabditis elegans JU775; assay: as above; settings: exposure: chronic from day 1 of adulthood, single dose per compound (concentration not stated in sheet)
Method: as §2

[8] = system: Caenorhabditis elegans MY16; assay: as above; settings: exposure: chronic from day 1 of adulthood, single dose per compound (concentration not stated in sheet)
Method: as §2

[9] = system: Caenorhabditis elegans N2; assay: as above; settings: exposure: chronic from day 1 of adulthood, single dose per compound (concentration not stated in sheet)
Method: as §2

[10] = system: Caenorhabditis briggsae AF16; assay: Kaplan-Meier median lifespan of treated plate (days); higher = longer lifespan; settings: exposure: chronic from day 1 of adulthood
Method: as §1

[11] = system: Caenorhabditis briggsae HK104; assay: as above; settings: exposure: chronic from day 1 of adulthood
Method: as §1

[12] = system: Caenorhabditis briggsae JU1348; assay: as above; settings: exposure: chronic from day 1 of adulthood
Method: as §1

[13] = system: Caenorhabditis briggsae AF16; assay: Kaplan-Meier median lifespan of treated cohort (days); higher = longer lifespan; settings: exposure: chronic from day 1 of adulthood, single dose per compound (concentration not stated in sheet)
Method: as §2

[14] = system: Caenorhabditis briggsae HK104; assay: as above; settings: exposure: chronic from day 1 of adulthood, single dose per compound (concentration not stated in sheet)
Method: as §2

[15] = system: Caenorhabditis briggsae JU1348; assay: as above; settings: exposure: chronic from day 1 of adulthood, single dose per compound (concentration not stated in sheet)
Method: as §2

[16] = system: Caenorhabditis elegans JU775; assay: as above; settings: exposure: chronic from day 1 of adulthood, single dose per compound (concentration not stated in sheet)
Method: as §2

[17] = system: Caenorhabditis elegans MY16; assay: as above; settings: exposure: chronic from day 1 of adulthood, single dose per compound (concentration not stated in sheet)
Method: as §2

[18] = system: Caenorhabditis elegans N2; assay: as above; settings: exposure: chronic from day 1 of adulthood, single dose per compound (concentration not stated in sheet)
Method: as §2

O=C(O)CCC(=O)C(=O)O [alpha-ketoglutaric acid]
Settings	Kaplan-Meier median lifespan, [10]	Kaplan-Meier median lifespan, [11]	Kaplan-Meier median lifespan, [12]	mean adult lifespan of treated plate, [1]	mean adult lifespan of treated plate, [2]	mean adult lifespan of treated plate, [3]
100 µM	26.5	36	23.3	27	33.8	23.3
500 µM	25	37.2	25.3	21.7	35.3	23.5
800 µM	26	36.3	23	24.9	33.7	22.7
1000 µM	28	37.2	28	27.5	36.7	25.5
4000 µM	25.9	35	22.8	26.5	33	24.6
16000 µM	19	23.8	12.5	20.2	23.6	14.7
40000 µM	18.5	25.8	11	20.3	24.7	11.7

Settings	Kaplan-Meier median lifespan	mean adult lifespan of treated cohort
[4]	–	25.9
[5]	–	33.8
[6]	–	24.6
[7]	–	24.6
[8]	–	24.9
[9]	–	21.4
[13]	26.3	–
[14]	34.7	–
[15]	25.9	–
[16]	25.6	–
[17]	25.3	–
[18]	21.9	–

Cc1ccc2c(c1)sc(-c1ccc(N(C)C)cc1)[n+]2C [Thioflavin T]
Settings	Kaplan-Meier median lifespan, [10]	Kaplan-Meier median lifespan, [11]	Kaplan-Meier median lifespan, [12]	mean adult lifespan of treated plate, [1]	mean adult lifespan of treated plate, [2]	mean adult lifespan of treated plate, [3]
0.5 µM	–	–	24	–	–	24.1
5 µM	–	–	23.6	–	–	24.3
5.3 µM	28	33	–	28.1	33.5	19.49
25 µM	–	–	26.2	–	–	25.9
26.5 µM	24	35	33	17	30.8	28.3
100 µM	–	–	22.4	–	–	21.5
106 µM	5.67	6	4.67	5.48	5.61	5.01
530 µM	5.67	5.5	4	5.75	5.71	4.33

Settings	Kaplan-Meier median lifespan	mean adult lifespan of treated cohort
[4]	–	31.3
[5]	–	39.5
[6]	–	27.6
[7]	–	25.5
[8]	–	26.7
[9]	–	20.2
[13]	31.7	–
[14]	41.4	–
[15]	28.1	–
[16]	27.7	–
[17]	27.2	–
[18]	21.4	–

— the supplement of paper PMC5321775
